In article PMC10094639, “Novel Antibiotic Resistance Genes Identified by Functional Gene Library Screening in Stenotrophomonas maltophilia and Chryseobacterium spp. Bacteria of Soil Origin” (International Journal of Molecular Sciences, 2023):
Values after ≈ are worked out from the molar mass of the structure shown.

Key:
C. aahli = assay: organism not typed; parameters: Broth microdilution MIC (Sensititre plates, ARIS 2X) against soil bacterial isolates; settings: soil
Text: (§1) Six Stenotrophomonas maltophilia and eight Chryseobacterium spp. antibiotic-resistant isolates were used for genomic library construction; all bacteria were isolated from farming field soil in Lithuania during the year 2016 [17, 65]. The isolates were designated as resistant if the MIC of antibiotic value matched EUCAST clinical breakpoints (v. 7.0, 2017, PK/PD (non-species related). Species were identified by matching obtained sequences with a sequence showing the highest maximum identity score from the GenBank database. If the identity of the best match was <99% and the query cover was <96%, only the genus was assigned. All environmental isolates were grown in LB medium at 28 °C. The bacteria were isolated from three farming fields in Lithuania during the year 2016 [17]. The sample collection points represented two different types of farming, i.e., organic and conventional (intensive); in all cases, the type of the soil was sandy loam. The organic farming sites were known not to use inorganic fertilizers or pesticides for a time period of over 20 years and were fertilized only with organic fertilizers (farmyard manure and slurry). Identification of bacterial isolates was based on 16S rRNA fragment sequencing as described previously. All six isolates of S. maltophilia were collected from a conventional winter wheat farming field. Antibiotic-resistant Chryseobacterium spp. isolates were recovered from various fields (conventional winter wheat, conventional rapeseed, and organic rapeseed). Two of the isolates were identified as C. aahli, and another two were identified as C. soldanellicola; for four of the isolates, only the genus could be assigned as Chryseobacterium spp. All selected isolates of S. maltophilia and Chryseobacterium spp. were resistant to at least two classes of antibiotics (β-lactams, aminoglycosides, and/or fluoroquinolones) (Table S1).

C. soldanellicola = assay: organism not typed; parameters: Broth microdilution MIC (Sensititre plates, ARIS 2X) against soil bacterial isolates; settings: soil
Text: as §1

Chryseobacterium sp. = assay: microbe, parasite or virus in culture; parameters: Broth microdilution MIC (Sensititre plates, ARIS 2X) against soil bacterial isolates; settings: Chryseobacterium
Text: as §1

S. maltophilia = assay: microbe, parasite or virus in culture; parameters: Broth microdilution MIC (Sensititre plates, ARIS 2X) against soil bacterial isolates; settings: Stenotrophomonas maltophilia
Text: as §1

CHM [1] = test system: T1, CHM; assay: UV-Vis spectrophotometry, initial hydrolysis rates, […] nm; format: biochemical, Chryseobacterium sp.; settings: 50 mM HEPES pH 7.0, 50 µM ZnCl2, 22 °C
T1 construct: signal peptide removed; pET-28b (NcoI) in E. coli BL21 Tuner (DE3); no tag mentioned

IND-17 [2] = test system: T2, IND-17; assay: as above; format: biochemical, Chryseobacterium sp.; settings: 50 mM HEPES pH 7.0, 50 µM ZnCl2, 22 °C
T2 construct: signal peptide removed; pET-28b (NcoI) in E. coli BL21 Tuner (DE3); no tag mentioned

CHM [3] = test system: T1, CHM; assay: as above; format: biochemical, Chryseobacterium sp.; settings: 50 mM HEPES pH 7.0, 50 µM ZnCl2, 22 °C; remark: listed apart in the source
CHM [4] = test system: T1, CHM; assay: as above; format: biochemical, Chryseobacterium sp.; settings: 50 mM HEPES pH 7.0, 50 µM ZnCl2, 22 °C; remark: listed apart in the source
IND-17 [5] = test system: T2, IND-17; assay: as above; format: biochemical, Chryseobacterium sp.; settings: 50 mM HEPES pH 7.0, 50 µM ZnCl2, 22 °C; remark: listed apart in the source
IND-17 [6] = test system: T2, IND-17; assay: as above; format: biochemical, Chryseobacterium sp.; settings: 50 mM HEPES pH 7.0, 50 µM ZnCl2, 22 °C; remark: listed apart in the source
CHM [7] = test system: T1, CHM; assay: as above; format: biochemical, Chryseobacterium sp.; settings: 50 mM HEPES pH 7.0, 50 µM ZnCl2, 22 °C; remark: listed apart in the source

Compound | MIC (C. aahli; Isolate No.=3-7-14) | MIC (C. aahli; Isolate No.=3-12-27) | MIC (C. soldanellicola; Isolate No.=3-7-16) | MIC (Chryseobacterium sp.; Isolate No.=2-2-6) | MIC (Chryseobacterium sp.; Isolate No.=2-4-10) | MIC (Chryseobacterium sp.; Isolate No.=2-6-15) | MIC (S. maltophilia; Isolate No.=2-1-3) | MIC (S. maltophilia; Isolate No.=2-4-11) | MIC (S. maltophilia; Isolate No.=2-12-28) | Km (CHM [1]) | Km (IND-17 [2]) | Km (CHM [3]) | MIC (S. maltophilia; Isolate No.=2-8-21) | MIC (C. soldanellicola; Isolate No.=4-6-16) | Km (CHM [4]) | Km (IND-17 [5]) | Km (IND-17 [6]) | Km (CHM [7]) | MIC (Chryseobacterium sp.; Isolate No.=2-8-20)
CCN1CCN(C(=O)N[C@@H](C(=O)N[C@@H]2C(=O)N3[C@@H]2SC(C)(C)[C@@H]3C(=O)O)c2ccccc2)C(=O)C1=O [Piperacillin] | 32 µg/mL (≈ 61.8 µM) | ≤ 16 µg/mL | ≤ 16 µg/mL | 32 µg/mL (≈ 61.8 µM) | ≤ 16 µg/mL | 128 µg/mL (≈ 247 µM) | 64 µg/mL (≈ 124 µM) | ≤ 16 µg/mL | 32 µg/mL (≈ 61.8 µM) | – | – | – | – | – | – | – | – | – | –
CC(C)(O/N=C(\C(=O)N[C@@H]1C(=O)N2C(C(=O)[O-])=C(C[n+]3ccccc3)CS[C@H]12)c1csc(N)n1)C(=O)O [Ceftazidime] | 8 µg/mL (≈ 14.6 µM) | 4 µg/mL (≈ 7.32 µM) | ≤ 1 µg/mL | 2 µg/mL (≈ 3.66 µM) | 4 µg/mL (≈ 7.32 µM) | – | 4 µg/mL (≈ 7.32 µM) | 2 µg/mL (≈ 3.66 µM) | 8 µg/mL (≈ 14.6 µM) | 200 ± 41 µM | – | – | – | – | – | – | – | – | –
O=C(Cc1cccs1)N[C@@H]1C(=O)N2C(C(=O)O)=C(/C=C/c3ccc([N+](=O)[O-])cc3[N+](=O)[O-])CS[C@H]12 [Nitrocefin] | – | – | – | – | – | – | – | – | – | – | 152 ± 4.7 µM | 153 ± 10 µM | – | – | – | – | – | – | –
O=C(O)c1cn(C2CC2)c2cc(N3CCNCC3)c(F)cc2c1=O [Ciprofloxacin] | 2 µg/mL (≈ 6.04 µM) | ≤ 0.5 µg/mL | ≤ 0.5 µg/mL | ≤ 0.5 µg/mL | 1 µg/mL (≈ 3.02 µM) | – | 1 µg/mL (≈ 3.02 µM) | – | 2 µg/mL (≈ 6.04 µM) | – | – | – | ≤ 0.5 µg/mL | – | – | – | – | – | –
CO[C@@]1(NC(=O)C2SC(=C(C(N)=O)C(=O)O)S2)C(=O)N2C(C(=O)O)=C(CSc3nnnn3C)CS[C@@H]21 (stereo partly drawn) [Cefotetan Na] | 32 µg/mL (≈ 55.6 µM) | – | 32 µg/mL (≈ 55.6 µM) | > 32 µg/mL | – | – | 4 µg/mL (≈ 6.95 µM) | ≤ 8 µg/mL | – | – | – | – | – | > 32 µg/mL | – | – | – | – | –
O=C1CN(/N=C/c2ccc([N+](=O)[O-])o2)C(=O)N1 [Nitrofurantoin] | 128 µg/mL (≈ 537 µM) | 64 µg/mL (≈ 269 µM) | 64 µg/mL (≈ 269 µM) | 64 µg/mL (≈ 269 µM) | 32 µg/mL (≈ 134 µM) | – | 128 µg/mL (≈ 537 µM) | > 128 µg/mL | – | – | – | – | – | ≤ 16 µg/mL | – | – | – | – | –
C[C@@H](O)[C@H]1C(=O)N2C(C(=O)O)=C(S[C@@H]3CN[C@H](C(=O)N(C)C)C3)[C@H](C)[C@H]12 [Meropenem] | 8 µg/mL (≈ 20.9 µM) | – | 2 µg/mL (≈ 5.22 µM) | > 8 µg/mL | – | – | ≤ 1 µg/mL | 2 µg/mL (≈ 5.22 µM) | > 8 µg/mL | – | – | – | – | 4 µg/mL (≈ 10.4 µM) | 10 ± 2 µM | 258 ± 25 µM | – | – | –
C[C@@H](O)[C@H]1C(=O)N2C(C(=O)O)=C(SCCN=CN)C[C@H]12 [Imipenem] | 16 µg/mL (≈ 53.4 µM) | – | 4 µg/mL (≈ 13.4 µM) | 8 µg/mL (≈ 26.7 µM) | ≤ 2 µg/mL | – | 16 µg/mL (≈ 53.4 µM) | > 16 µg/mL | – | – | – | – | – | – | – | – | 185 ± 19 µM | 389 ± 48 µM | 4 µg/mL (≈ 13.4 µM)
NCC[C@H](O)C(=O)N[C@@H]1C[C@H](N)[C@@H](O[C@H]2O[C@H](CN)[C@@H](O)[C@H](O)[C@H]2O)[C@H](O)[C@H]1O[C@H]1O[C@H](CO)[C@@H](O)[C@H](N)[C@H]1O [Amikacin] | 32 µg/mL (≈ 54.6 µM) | ≤ 8 µg/mL | 32 µg/mL (≈ 54.6 µM) | ≤ 8 µg/mL | – | 32 µg/mL (≈ 54.6 µM) | ≤ 8 µg/mL | 16 µg/mL (≈ 27.3 µM) | – | – | – | – | 32 µg/mL (≈ 54.6 µM) | ≤ 8 µg/mL | – | – | – | – | –
